ChEMBL document CHEMBL1136713, “Structure-activity relationships of acetylcholinesterase noncovalent inhibitors based on a polyamine backbone. 2. Role of the substituents on the phenyl ring and nitrogen atoms of caproctamine” (J Med Chem, 2003)

Legend:
[1] = molecular target: T1, Muscarinic acetylcholine receptor M2 (Homo sapiens) (UniProt P08172); experiment: Antagonistic potency of compound towards Muscarinic acetylcholine receptor M2 in guinea pig left atrium; assay type: functional, tissue-based; conditions: Cavia porcellus; Cardiac atrium; target entry is the homologue from another species
T1 sequence (whole entry): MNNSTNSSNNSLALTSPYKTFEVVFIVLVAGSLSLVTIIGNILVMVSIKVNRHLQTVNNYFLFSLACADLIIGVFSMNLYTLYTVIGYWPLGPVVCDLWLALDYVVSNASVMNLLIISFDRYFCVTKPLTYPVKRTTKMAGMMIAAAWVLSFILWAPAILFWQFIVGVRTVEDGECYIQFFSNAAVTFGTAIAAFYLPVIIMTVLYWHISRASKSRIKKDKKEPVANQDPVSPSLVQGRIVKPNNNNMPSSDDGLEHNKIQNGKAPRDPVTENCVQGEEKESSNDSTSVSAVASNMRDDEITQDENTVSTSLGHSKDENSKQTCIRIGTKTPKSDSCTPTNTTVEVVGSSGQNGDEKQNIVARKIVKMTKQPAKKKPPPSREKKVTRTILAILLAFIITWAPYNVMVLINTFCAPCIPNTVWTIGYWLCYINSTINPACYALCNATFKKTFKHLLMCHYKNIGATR

Cholinesterase = Cholinesterase (Homo sapiens, UniProt P06276)
Description: Inhibitory concentration against butyrylcholinesterase from human serum

Acetylcholinesterase [2] = molecular target: T2, Acetylcholinesterase (Homo sapiens, UniProt P22303)
Description: Inhibitory activity of compound against acetylcholinesterase from human erythrocytes

Acetylcholinesterase [3] = molecular target: T2, Acetylcholinesterase; remark: listed apart in the source
Description: Inhibitory concentration of compound against acetylcholinesterase from human erythrocytes at pH=7.5

Acetylcholinesterase [4] = molecular target: T2, Acetylcholinesterase; remark: listed apart in the source
Description: Inhibitory concentration against acetylcholinesterase from human erythrocytes

Acetylcholinesterase [5] = molecular target: T2, Acetylcholinesterase; remark: listed apart in the source
Description: Inhibitory concentration of compound against acetylcholinesterase from human erythrocytes at pH=7.0

Acetylcholinesterase [6] = molecular target: T2, Acetylcholinesterase; remark: listed apart in the source
Description: Inhibitory concentration of compound against acetylcholinesterase from human erythrocytes at pH=8.0

[7] = Apparent dissociation constant of compound was evaluated; assay type: ADME

T2 sequence (P22303 whole entry): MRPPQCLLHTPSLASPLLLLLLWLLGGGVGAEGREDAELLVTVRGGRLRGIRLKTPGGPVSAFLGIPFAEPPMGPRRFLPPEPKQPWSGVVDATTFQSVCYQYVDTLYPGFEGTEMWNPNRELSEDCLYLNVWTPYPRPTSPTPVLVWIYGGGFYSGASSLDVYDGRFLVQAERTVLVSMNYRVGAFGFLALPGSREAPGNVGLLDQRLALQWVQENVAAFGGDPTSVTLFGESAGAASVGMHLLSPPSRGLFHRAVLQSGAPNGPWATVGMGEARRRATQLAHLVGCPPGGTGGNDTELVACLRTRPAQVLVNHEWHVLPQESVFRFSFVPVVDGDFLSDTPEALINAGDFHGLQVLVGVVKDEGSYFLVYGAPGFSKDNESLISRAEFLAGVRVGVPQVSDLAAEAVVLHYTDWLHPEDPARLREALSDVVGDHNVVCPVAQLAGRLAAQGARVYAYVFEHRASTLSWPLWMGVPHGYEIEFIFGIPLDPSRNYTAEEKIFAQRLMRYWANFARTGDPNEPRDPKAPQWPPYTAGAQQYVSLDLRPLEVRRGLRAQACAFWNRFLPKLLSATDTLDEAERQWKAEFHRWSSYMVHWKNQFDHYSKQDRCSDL
Sequence of Cholinesterase (P06276 whole entry): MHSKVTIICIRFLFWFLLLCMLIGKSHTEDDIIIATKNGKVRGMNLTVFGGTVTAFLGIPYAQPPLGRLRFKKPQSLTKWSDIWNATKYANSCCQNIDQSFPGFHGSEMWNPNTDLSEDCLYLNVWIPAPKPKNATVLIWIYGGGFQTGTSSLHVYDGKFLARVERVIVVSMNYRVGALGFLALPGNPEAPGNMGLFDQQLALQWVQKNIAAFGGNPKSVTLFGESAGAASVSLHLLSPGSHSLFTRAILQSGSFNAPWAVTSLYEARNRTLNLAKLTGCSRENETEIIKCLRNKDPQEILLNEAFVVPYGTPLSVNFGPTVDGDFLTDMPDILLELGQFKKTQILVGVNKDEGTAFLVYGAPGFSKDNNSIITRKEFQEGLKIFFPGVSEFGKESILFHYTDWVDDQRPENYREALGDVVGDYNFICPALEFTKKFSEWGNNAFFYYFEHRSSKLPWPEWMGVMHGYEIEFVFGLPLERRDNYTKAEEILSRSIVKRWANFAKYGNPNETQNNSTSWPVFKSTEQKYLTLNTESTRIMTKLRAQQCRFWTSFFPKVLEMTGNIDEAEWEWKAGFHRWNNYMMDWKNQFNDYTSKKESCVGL
Description for Cavia porcellus: Ability to reverse the D-tubocurarine-induced neuromuscular blockade in guinea pig left atrium

| SMILES | pKb [1] | IC50 (Cholinesterase) [nM] | pAI50 (Cavia porcellus) | Ki (Acetylcholinesterase [2]) [nM] | IC50 (Acetylcholinesterase [3]) [nM] | IC50 (Acetylcholinesterase [4]) [nM] | IC50 (Acetylcholinesterase [5]) [nM] | IC50 (Acetylcholinesterase [6]) [nM] | pKa [7] |
| --- | --- | --- | --- | --- | --- | --- | --- | --- | --- |
| CCN(CCCCCC(=O)N(C)CCCCCCCCN(C)C(=O)CCCCCN(CC)Cc1ccccc1OC)Cc1ccccc1OC | 5.65 | 2240 | 6.45 | 12.2 | 17.4 | 18.6 | 16.2 | 18.6 | 7.8 |
| CC[N+](C)(CCCCCC(=O)N(C)CCCCCCCCN(C)C(=O)CCCCC[N+](C)(CC)Cc1ccccc1C)Cc1ccccc1C (configuration not stated) | – | 6460 | – | – | – | 16.6 | – | – | – |
| COc1ccccc1CN(CCCCCC(=O)N(C)CCCCCCCCN(C)C(=O)CCCCCN(Cc1ccccc1OC)C(C)C)C(C)C | – | 871 | – | – | – | 72.4 | – | – | – |
| CNC(=O)Oc1ccc2c(c1)[C@]1(C)CCN(C)[C@@H]1N2C [PHYSOSTIGMINE] | – | – | 6.5 | – | – | – | – | – | – |
| CC[N+](C)(CCCCCC(=O)N(C)CCCCCCCCN(C)C(=O)CCCCC[N+](C)(CC)Cc1ccccc1OC)Cc1ccccc1OC (configuration not stated) | – | 1410 | 7.21 | – | 11 | 12 | 11 | 12 | – |
| CCN(CCCCCC(=O)N(CCCCCCCCN(C(=O)CCCCCN(CC)Cc1ccccc1OC)C(C)C)C(C)C)Cc1ccccc1OC | – | 2140 | – | – | – | 18.2 | – | – | – |
| COc1cccc(CN(C)CCCCCC(=O)N(C)CCCCCCCCN(C)C(=O)CCCCCN(C)Cc2cccc(OC)c2)c1 | – | 8320 | – | – | – | 676 | – | – | – |
| CC[N+](C)(CCCCCC(=O)N(C)CCCCCCCCN(C)C(=O)CCCCC[N+](C)(CC)Cc1ccccc1[N+](=O)[O-])Cc1ccccc1[N+](=O)[O-] (configuration not stated) | – | 2400 | – | – | 12.9 | 12.3 | 12.6 | 12.3 | – |
| CCCOc1ccccc1CN(CC)CCCCCC(=O)N(C)CCCCCCCCN(C)C(=O)CCCCCN(CC)Cc1ccccc1OCCC | – | 166 | 6.19 | – | – | 33.9 | – | – | 7.75 |
| COc1ccccc1CN(C)CCCCCC(=O)N(C)CCCCCCCCN(C)C(=O)CCCCCN(C)Cc1ccccc1OC [CAPROCTAMINE] | 6.39 | – | 5.79 | 104 | – | – | – | – | – |
| CCN(CCCCCC(=O)N(C)CCCCCCCCN(C)C(=O)CCCCCN(CC)Cc1ccccc1C)Cc1ccccc1C | – | 7410 | 6.35 | – | – | 56.2 | – | – | 7.46 |
| COc1ccc(CN(C)CCCCCC(=O)N(C)CCCCCCCCN(C)C(=O)CCCCCN(C)Cc2ccc(OC)cc2)cc1 | – | 5500 | – | – | – | 5750 | – | – | – |
| CCN(CCCCCC(=O)N(C)CCCCCCCCN(C)C(=O)CCCCCN(CC)Cc1ccccc1)Cc1ccccc1 | – | 1070 | 6.32 | – | – | 49 | – | – | 7.42 |
| CCN(CCCCCC(=O)N(C)CCCCCCCCN(C)C(=O)CCCCCN(CC)Cc1ccccc1[N+](=O)[O-])Cc1ccccc1[N+](=O)[O-] | – | 55000 | 5.93 | – | 79.4 | 794 | 32.4 | 794 | 6.26 |
| CC[N+](C)(CCCCCC(=O)N(C)CCCCCCCCN(C)C(=O)CCCCC[N+](C)(CC)Cc1ccccc1C(F)(F)F)Cc1ccccc1C(F)(F)F (configuration not stated) | – | 7590 | – | – | – | 11.7 | – | – | – |
| CCN(CCCCCC(=O)N(C)CCCCCCCCN(C)C(=O)CCCCCN(CC)Cc1ccccc1C(F)(F)F)Cc1ccccc1C(F)(F)F | < 5 | 166000 | 6.84 | – | – | 4570 | – | – | 6.15 |
| CCCOc1ccccc1C[N+](C)(CC)CCCCCC(=O)N(C)CCCCCCCCN(C)C(=O)CCCCC[N+](C)(CC)Cc1ccccc1OCCC (configuration not stated) | – | 83.2 | – | – | – | 17.4 | – | – | – |
| CCN(CCCCCC(=O)N(C)CCCCCCCCN(C)C(=O)CCCCCN(CC)Cc1ccccc1Cl)Cc1ccccc1Cl | 5.61 | 4070 | 7.19 | – | – | 112 | – | – | 6.92 |
| CC[N+](C)(CCCCCC(=O)N(C)CCCCCCCCN(C)C(=O)CCCCC[N+](C)(CC)Cc1ccccc1Cl)Cc1ccccc1Cl (configuration not stated) | – | 2570 | – | – | – | 19.5 | – | – | – |
| CC[N+](C)(CCCCCCOCCCCCCCCOCCCCCC[N+](C)(CC)Cc1ccccc1OC)Cc1ccccc1OC (configuration not stated) | – | 759 | – | – | – | 77.6 | – | – | – |
| CCN(CCCCCCOCCCCCCCCOCCCCCCN(CC)Cc1ccccc1OC)Cc1ccccc1OC | – | 2630 | – | – | – | 204 | – | – | – |
| CC[N+](C)(CCCCCC(=O)N(CCCCCCCCN(C(=O)CCCCC[N+](C)(CC)Cc1ccccc1OC)C(C)C)C(C)C)Cc1ccccc1OC (configuration not stated) | – | 1660 | – | – | – | 8.13 | – | – | – |
| CC[N+](C)(CCCCCC(=O)N(C)CCCCCCCCN(C)C(=O)CCCCC[N+](C)(CC)Cc1ccccc1)Cc1ccccc1 (configuration not stated) | – | 2510 | – | – | – | 37.2 | – | – | – |
